# pKi: −log10 of the molar value.
# Biological target: Carbonic anhydrase 1 (Homo sapiens, UniProt P00915)
# Experiment: Inhibition of human recombinant carbonic anhydrase 1 by stopped-flow CO2 hydration assay
# Sequence of Carbonic anhydrase 1 (P00915 whole entry): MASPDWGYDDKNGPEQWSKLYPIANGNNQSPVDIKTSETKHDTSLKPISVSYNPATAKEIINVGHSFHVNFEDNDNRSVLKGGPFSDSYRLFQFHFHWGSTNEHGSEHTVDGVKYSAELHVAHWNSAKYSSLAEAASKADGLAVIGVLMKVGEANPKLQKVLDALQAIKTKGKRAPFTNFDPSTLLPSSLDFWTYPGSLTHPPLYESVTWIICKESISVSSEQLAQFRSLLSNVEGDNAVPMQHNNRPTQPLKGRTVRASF
row,Structure (SMILES),pKi
1,NS(=O)(=O)OC1CCN(S(=O)(=O)[C@@H]2O[C@H](CO)[C@@H](O)[C@H](O)[C@H]2O)CC1,< 4.70
2,COC(=O)[C@H](CS(N)(=O)=O)NS(=O)(=O)[C@@H]1O[C@H](COC(C)=O)[C@@H](OC(C)=O)[C@H](OC(C)=O)[C@H]1OC(C)=O,< 4.70

# Biological target: Carbonic anhydrase 9 (Homo sapiens, UniProt Q16790)
# Experiment: Inhibition of human recombinant carbonic anhydrase 9 by stopped-flow CO2 hydration assay
row,Structure (SMILES),pKi
1,COC(=O)[C@@H]1C[C@@H](OS(N)(=O)=O)CN1S(=O)(=O)[C@@H]1O[C@H](COC(C)=O)[C@@H](OC(C)=O)[C@H](OC(C)=O)[C@H]1OC(C)=O,8.70
2,NS(=O)(=O)O[C@@H]1CCN(S(=O)(=O)[C@@H]2O[C@H](CO)[C@@H](O)[C@H](O)[C@H]2O)C1,8.70
3,CC(=O)OC[C@H]1O[C@@H](S(=O)(=O)NCCCOS(N)(=O)=O)[C@H](OC(C)=O)[C@@H](OC(C)=O)[C@@H]1OC(C)=O,6.67
4,CC(=O)OC[C@H]1O[C@@H](S(=O)(=O)N2CC[C@@H](OS(N)(=O)=O)C2)[C@H](OC(C)=O)[C@@H](OC(C)=O)[C@@H]1OC(C)=O,8.70
5,NS(=O)(=O)OCCCNS(=O)(=O)[C@@H]1O[C@H](CO)[C@@H](O)[C@H](O)[C@H]1O,8.70

# Reference: ChEMBL document CHEMBL3351783, “Structural insights into carbonic anhydrase IX isoform specificity of carbohydrate-based sulfamates” (J Med Chem, 2014)
